How the values were obtained:
Type in all cases: cell-based, Trypanosoma brucei brucei
[1] = system: T1, FT1–3 (TbFT1–3); assay: inhibition of [3H]folate uptake, whole cells; conditions: 2.0 μM folate ([S] ≅ Km); pH 7.3; read-out: IC50 against folate
T1 construct: native transporters in intact bloodstream-form trypanosomes; 12 predicted transmembrane helices; uptake assigned by RNAi knockdown of all three
From the text: inhibition of [3H]folate uptake, whole cells on FT1–3 (TbFT1–3)

[2] = system: T1, FT1–3 (TbFT1–3); assay: inhibition of [3H]folate uptake, whole cells, Lineweaver-Burk / global fit; conditions: competitive with folate; MTX 0, 0.5, 1 μM; pH 7.3
[3] = system: T1, FT1–3 (TbFT1–3); assay: [3H]MTX uptake, whole cells; conditions: transport, 23 °C, pH 7.3; labelled compound
[4] = system: T1, FT1–3 (TbFT1–3); assay: [3H]folic acid uptake, whole cells; conditions: transport, 23 °C, pH 7.3; labelled compound
From the text: [3H]folic acid uptake, whole cells on FT1–3 (TbFT1–3) | Uptake rates for folate obeyed simple Michaelis-Menten kinetics (Fig. 2D) yielding a Km of […]

[5] = system: T1, FT1–3 (TbFT1–3); assay: inhibition of [3H]MTX uptake, whole cells; conditions: 13 μM MTX ([S] ≅ Km); pH 7.3; read-out: IC50 against MTX
From the text: inhibition of [3H]MTX uptake, whole cells on FT1–3 (TbFT1–3)

[6] = system: T1, FT1–3 (TbFT1–3); assay: inhibition of [3H]MTX uptake, whole cells, Lineweaver-Burk / global fit; conditions: competitive with MTX; folate 0, 0.5, 1 μM; pH 7.3

Compound	IC50 [1]	other results
CN(Cc1cnc2nc(N)nc(N)c2n1)c1ccc(C(=O)N[C@@H](CCC(=O)O)C(=O)O)cc1 [methotrexate]	3.4 ± 0.4 µM	Ki [2]: 480 ± 70 nM; Km [3]: 18.4 ± 2.2 µM
CN1c2c(nc(N)[nH]c2=O)NC[C@@H]1CNc1ccc(C(=O)N[C@@H](CCC(=O)O)C(=O)O)cc1 [5-methyl-THF]	6.3 ± 1 µM	
Nc1nc(=O)c2c(CCc3ccc(C(=O)N[C@@H](CCC(=O)O)C(=O)O)cc3)c[nH]c2[nH]1 [pemetrexed]	3.2 ± 0.3 µM	
Cc1nc2ccc(CN(C)c3ccc(C(=O)N[C@@H](CCC(=O)O)C(=O)O)s3)cc2c(=O)[nH]1 [raltitrexed]	1.8 ± 0.4 µM	
Nc1ccc(C(=O)N[C@@H](CCC(=O)O)C(=O)O)cc1 [pABA-Glu]	30.8 ± 3.7 µM	
Nc1nc2ncc(CNc3ccc(C(=O)N[C@@H](CCC(=O)O)C(=O)O)cc3)nc2c(=O)[nH]1 [folate]		Km [4]: 2040 ± 530 nM; IC50 [5]: 1900 ± 400 nM; Ki [6]: 940 ± 210 nM
